Patent US20150307938A1, “METHOD TO IDENTIFY A NOVEL CLASS OF IMMUNOLOGIC ADJUVANTS” (Lancell, L.L.C., priority 2011, published 2015)

System: skin
Test: Affymetrix microarray of skin, DBP-4 hr and analogs vs. untreated; gene selection by log-2 fold change, Wilcoxon, Kendall tau (Tables 8, 9)
Type: in vivo, mouse

CCCCOC(=O)c1ccccc1C(=O)OCCCC [DBP, dibutylphthalate]
DBP Expression: Socs2 (NM_001168655_at, DBP-4 hr): 8.92
DBP Expression: Socs2 (NM_001168656_at, DBP-4 hr): 8.92
DBP Expression: Socs2 (NM_001168657_at, DBP-4 hr): 8.92
DBP Expression: Arid5a (NM_001172205_at, DBP-4 hr): 7.61
DBP Expression: Arid5a (NM_001172206_at, DBP-4 hr): 7.61
DBP Expression: Nfkb2 (NM_001177369_at, DBP-4 hr): 8.26
DBP Expression: Nfkb2 (NM_001177370_at, DBP-4 hr): 8.26
DBP Expression: Cd44 (NM_001177785_at, DBP-4 hr): 9.82
DBP Expression: Cd44 (NM_001177786_at, DBP-4 hr): 9.82
DBP Expression: Cd44 (NM_001177787_at, DBP-4 hr): 9.82
DBP Expression: Smox (NM_001177833_at, DBP-4 hr): 8.18
DBP Expression: Smox (NM_001177834_at, DBP-4 hr): 8.24
DBP Expression: Smox (NM_001177835_at, DBP-4 hr): 8.44
DBP Expression: Smox (NM_001177836_at, DBP-4 hr): 8.07
DBP Expression: Smox (NM_001177837_at, DBP-4 hr): 8.07
DBP Expression: Smox (NM_001177838_at, DBP-4 hr): 8.44
DBP Expression: Smox (NM_001177839_at, DBP-4 hr): 8.07
DBP Expression: Smox (NM_001177840_at, DBP-4 hr): 8.44
DBP Expression: Pde4b (NM_001177980_at, DBP-4 hr): 8.96
DBP Expression: Pde4b (NM_001177981_at, DBP-4 hr): 8.96
DBP Expression: Pde4b (NM_001177982_at, DBP-4 hr): 8.96
DBP Expression: 5730408K05Rik (NR_027866_at, DBP-4 hr): 8.14
DBP Expression: Arid5a (NR_033310_at, DBP-4 hr): 7.61
Wilcoxon (Socs2 NM_007706_at, DBP-4 hr vs. untreated): No
Kendall (Socs2 NM_007706_at, Kendall tau coefficient): No
Wilcoxon (Socs3 NM_007707_at, DBP-4 hr vs. untreated): Yes
Kendall (Socs3 NM_007707_at, Kendall tau coefficient): No
Wilcoxon (Timp1 NM_001044384_at, DBP-4 hr vs. untreated): Yes
Kendall (Timp1 NM_001044384_at, Kendall tau coefficient): No
DBP Expression: LOC100504977 (XM_003085794_at, DBP-4 hr): 8.47
Wilcoxon: 1810046J19Rik (gene 1810046J19Rik, NM_025559_at, DBP-4 hr vs. untreated): No
Kendall: 1810046J19Rik (gene 1810046J19Rik, NM_025559_at, gene expression vs. output): Yes
Wilcoxon: 4933434E20Rik (gene 4933434E20Rik, NM_025762_at, DBP-4 hr vs. untreated): No
Kendall: 4933434E20Rik (gene 4933434E20Rik, NM_025762_at, gene expression vs. output): Yes
Log2 Expression Level (gene #1 of Table 8): 6.82
Log2 Expression Level (gene #2 of Table 8): 6.93
Log2 Expression Level (gene #3 of Table 8): 9.82
Log2 Expression Level (gene #4 of Table 8): 9.82
Log2 Expression Level (gene #5 of Table 8): 7.53
Log2 Expression Level (gene #6 of Table 8): 6.91
Log2 Expression Level (gene #7 of Table 8): 6.26
Log2 Expression Level (gene #8 of Table 8): 6.91
Log2 Expression Level (gene #9 of Table 8): 6.91
Log2 Expression Level (gene #10 of Table 8): 6.91
Log2 Expression Level (gene #11 of Table 8): 6.26
Log2 Expression Level (gene #12 of Table 8): 6.26
Log2 Expression Level (gene #13 of Table 8): 6.26
Log2 Expression Level (gene #14 of Table 8): 6.13
Log2 Expression Level (gene #15 of Table 8): 6.13
Log2 Expression Level (gene #16 of Table 8): 7.45
Log2 Expression Level (gene #17 of Table 8): 9.48
Log2 Expression Level (gene #18 of Table 8): 9.48
Log2 Expression Level (gene #19 of Table 8): 9.61
Log2 Expression Level (gene #20 of Table 8): 11.11
Log2 Expression Level (gene #21 of Table 8): 9.27
Log2 Expression Level (gene #22 of Table 8): 8.24
Log2 Expression Level (gene #23 of Table 8): 6.89
Log2 Expression Level (gene #24 of Table 8): 8.10
Log2 Expression Level (gene #25 of Table 8): 8.10
Log2 Expression Level (gene #26 of Table 8): 8.56
Log2 Expression Level (gene #27 of Table 8): 8.56
Log2 Expression Level (gene #28 of Table 8): 8.56
Log2 Expression Level (gene #29 of Table 8): 7.22
Log2 Expression Level (gene #30 of Table 8): 8.92
Log2 Expression Level (gene #31 of Table 8): 8.92
Log2 Expression Level (gene #32 of Table 8): 8.92
Log2 Expression Level (gene #33 of Table 8): 6.54
Log2 Expression Level (gene #34 of Table 8): 7.61
Log2 Expression Level (gene #35 of Table 8): 7.61
Log2 Expression Level (gene #36 of Table 8): 9.82
Log2 Expression Level (gene #37 of Table 8): 9.82
Log2 Expression Level (gene #38 of Table 8): 9.82
Log2 Expression Level (gene #39 of Table 8): 8.18
Log2 Expression Level (gene #40 of Table 8): 8.24
Log2 Expression Level (gene #41 of Table 8): 8.44
Log2 Expression Level (gene #42 of Table 8): 8.07
Log2 Expression Level (gene #43 of Table 8): 8.07
Log2 Expression Level (gene #44 of Table 8): 8.44
Log2 Expression Level (gene #45 of Table 8): 8.07
Log2 Expression Level (gene #46 of Table 8): 8.44
Log2 Expression Level (gene #47 of Table 8): 8.96
Log2 Expression Level (gene #48 of Table 8): 8.96
Log2 Expression Level (gene #49 of Table 8): 8.96
Log2 Expression Level (gene #50 of Table 8): 10.11
Log2 Expression Level (gene #51 of Table 8): 8.84
Log2 Expression Level (gene #52 of Table 8): 10.36
Log2 Expression Level (gene #53 of Table 8): 8.58
Log2 Expression Level (gene #54 of Table 8): 10.63
Log2 Expression Level (gene #55 of Table 8): 7.56
Log2 Expression Level (gene #56 of Table 8): 10.17
Log2 Expression Level (gene #57 of Table 8): 8.92
Log2 Expression Level (gene #58 of Table 8): 9.48
Log2 Expression Level (gene #59 of Table 8): 8.72
Log2 Expression Level (gene #60 of Table 8): 7.73
Log2 Expression Level (gene #61 of Table 8): 12.15
Log2 Expression Level (gene #62 of Table 8): 8.52
Log2 Expression Level (gene #63 of Table 8): 11.36
Log2 Expression Level (gene #64 of Table 8): 11.47
Log2 Expression Level (gene #65 of Table 8): 7.88
Log2 Expression Level (gene #66 of Table 8): 8.85
Log2 Expression Level (gene #67 of Table 8): 5.48
Log2 Expression Level (gene #68 of Table 8): 10.24
Log2 Expression Level (gene #69 of Table 8): 6.54
Log2 Expression Level (gene #70 of Table 8): 5.48
Log2 Expression Level (gene #71 of Table 8): 8.51
Log2 Expression Level (gene #72 of Table 8): 9.12
Log2 Expression Level (gene #73 of Table 8): 7.67
Log2 Expression Level (gene #74 of Table 8): 7.70
Log2 Expression Level (gene #75 of Table 8): 9.61
Log2 Expression Level (gene #76 of Table 8): 5.46
Log2 Expression Level (gene #77 of Table 8): 9.71
Log2 Expression Level (gene #78 of Table 8): 10.76
Log2 Expression Level (gene #79 of Table 8): 8.09
Log2 Expression Level (gene #80 of Table 8): 13.23
Log2 Expression Level (gene #81 of Table 8): 6.69
Log2 Expression Level (gene #82 of Table 8): 6.28
Log2 Expression Level (gene #83 of Table 8): 7.59
Log2 Expression Level (gene #84 of Table 8): 8.32
Log2 Expression Level (gene #85 of Table 8): 7.84
Log2 Expression Level (gene #86 of Table 8): 7.16
Log2 Expression Level (gene #87 of Table 8): 9.56
Log2 Expression Level (gene #88 of Table 8): 8.67
Log2 Expression Level (gene #89 of Table 8): 6.04
Log2 Expression Level (gene #90 of Table 8): 10.84
Log2 Expression Level (gene #91 of Table 8): 8.25
Log2 Expression Level (gene #92 of Table 8): 7.56
Log2 Expression Level (gene #93 of Table 8): 9.98
Log2 Expression Level (gene #94 of Table 8): 8.85
Log2 Expression Level (gene #95 of Table 8): 7.22
Log2 Expression Level (gene #96 of Table 8): 8.79
Log2 Expression Level (gene #97 of Table 8): 6.04
Log2 Expression Level (gene #98 of Table 8): 5.99
Log2 Expression Level (gene #99 of Table 8): 10.05
Log2 Expression Level (gene #100 of Table 8): 8.07
Wilcoxon (gene #535 Tmem93 NM_001168470_at, DBP-4 hr vs. untreated): No
Kendall (gene #535 Tmem93 NM_001168470_at, Kendall tau, expression vs. outcome): Yes
Wilcoxon (gene #536 Nfkb2 NM_001177369_at, DBP-4 hr vs. untreated): No
Kendall (gene #536 Nfkb2 NM_001177369_at, Kendall tau, expression vs. outcome): Yes
Wilcoxon (gene #537 Nfkb2 NM_001177370_at, DBP-4 hr vs. untreated): No
Kendall (gene #537 Nfkb2 NM_001177370_at, Kendall tau, expression vs. outcome): Yes
Wilcoxon (gene #538 Zfp518b NM_001177902_at, DBP-4 hr vs. untreated): No
Kendall (gene #538 Zfp518b NM_001177902_at, Kendall tau, expression vs. outcome): Yes
Wilcoxon (gene #539 Ccm2 NM_001190343_at, DBP-4 hr vs. untreated): No
Kendall (gene #539 Ccm2 NM_001190343_at, Kendall tau, expression vs. outcome): Yes
Wilcoxon (gene #540 Ccm2 NM_001190344_at, DBP-4 hr vs. untreated): No
Kendall (gene #540 Ccm2 NM_001190344_at, Kendall tau, expression vs. outcome): Yes
Wilcoxon (gene #541 Meis1 NM_001193271_at, DBP-4 hr vs. untreated): No
Kendall (gene #541 Meis1 NM_001193271_at, Kendall tau, expression vs. outcome): Yes
Wilcoxon (gene #542 Bcar1 NM_001198839_at, DBP-4 hr vs. untreated): No
Kendall (gene #542 Bcar1 NM_001198839_at, Kendall tau, expression vs. outcome): Yes
Wilcoxon (gene #543 Dcaf11 NM_001199009_at, DBP-4 hr vs. untreated): No
Kendall (gene #543 Dcaf11 NM_001199009_at, Kendall tau, expression vs. outcome): Yes
Wilcoxon (gene #544 Rabgef1 NM_001199059_at, DBP-4 hr vs. untreated): No
Kendall (gene #544 Rabgef1 NM_001199059_at, Kendall tau, expression vs. outcome): Yes
Wilcoxon (gene #545 4931408A02Rik NM_001199210_at, DBP-4 hr vs. untreated): No
Kendall (gene #545 4931408A02Rik NM_001199210_at, Kendall tau, expression vs. outcome): Yes
Wilcoxon (gene #546 Cav1 NM_007616_at, DBP-4 hr vs. untreated): No
Kendall (gene #546 Cav1 NM_007616_at, Kendall tau, expression vs. outcome): Yes
Wilcoxon (gene #547 Cdkn2c NM_007671_at, DBP-4 hr vs. untreated): No
Kendall (gene #547 Cdkn2c NM_007671_at, Kendall tau, expression vs. outcome): Yes
Wilcoxon (gene #548 Chd1 NM_007690_at, DBP-4 hr vs. untreated): No
Kendall (gene #548 Chd1 NM_007690_at, Kendall tau, expression vs. outcome): Yes
Wilcoxon (gene #549 Cox8a NM_007750_at, DBP-4 hr vs. untreated): No
Kendall (gene #549 Cox8a NM_007750_at, Kendall tau, expression vs. outcome): Yes
Wilcoxon (gene #550 Epc1 NM_007935_at, DBP-4 hr vs. untreated): No
Kendall (gene #550 Epc1 NM_007935_at, Kendall tau, expression vs. outcome): Yes
Wilcoxon (gene #551 Mpzl2 NM_007962_at, DBP-4 hr vs. untreated): No
Kendall (gene #551 Mpzl2 NM_007962_at, Kendall tau, expression vs. outcome): Yes
Wilcoxon (gene #552 Fnta NM_008033_at, DBP-4 hr vs. untreated): No
Kendall (gene #552 Fnta NM_008033_at, Kendall tau, expression vs. outcome): Yes
Wilcoxon (gene #553 Gcdh NM_008097_at, DBP-4 hr vs. untreated): No
Kendall (gene #553 Gcdh NM_008097_at, Kendall tau, expression vs. outcome): Yes
Wilcoxon (gene #554 Gcnt2 NM_008105_at, DBP-4 hr vs. untreated): No
Kendall (gene #554 Gcnt2 NM_008105_at, Kendall tau, expression vs. outcome): Yes
Wilcoxon (gene #555 Nr3c1 NM_008173_at, DBP-4 hr vs. untreated): No
Kendall (gene #555 Nr3c1 NM_008173_at, Kendall tau, expression vs. outcome): Yes
Wilcoxon (gene #556 Hhex NM_008245_at, DBP-4 hr vs. untreated): No
Kendall (gene #556 Hhex NM_008245_at, Kendall tau, expression vs. outcome): Yes
